Measurements published in ChEMBL document CHEMBL1157539, “Thousands of chemical starting points for antimalarial lead identification” (Nature, 2010).

Test system: Plasmodium falciparum
Assay: GSK_TCMDC: Inhibition of Plasmodium falciparum 3D7 in whole erythrocytes, using parasite LDH activity as an index of growth.
Assay type: functional, organism-based

O=C(NC1CCC(CN2CCC(c3c[nH]c4ccccc34)CC2)CC1)c1ccc(-c2ccccc2[N+](=O)[O-])o1 (centres undefined)
XC50 (Plasmodium falciparum, 3D7): 772 nM

O=C(NCCN1CCCCC1)c1cccc(Nc2nccc(Nc3ccc(Oc4ccccc4)cc3)n2)c1
XC50 (Plasmodium falciparum, 3D7): 273 nM

Cc1ccc(Nc2cc(C)nn2-c2nc(C)cc(O)n2)cc1
XC50 (Plasmodium falciparum, 3D7): 864 nM

NS(=O)(=O)c1ccccc1Nc1nc(Nc2ccc(N3CCOCC3)cc2)nc2c1CCC2
XC50 (Plasmodium falciparum, 3D7): 667 nM

O=C(NC1CCCCC1)N(Cc1cccc(-c2ccc(CNCc3ccc4c(c3)OCO4)cc2)c1)C1CCN(Cc2ccccc2)CC1
XC50 (Plasmodium falciparum, 3D7): 788 nM

FC(F)(F)c1cccc(N=C(S)NN=Cc2ccccn2)c1
XC50 (Plasmodium falciparum, 3D7): 346 nM

COc1cc2nc(NCCc3ccccc3)nc(NC(C)c3ccccc3)c2cc1OC (centres undefined)
XC50 (Plasmodium falciparum, 3D7): 281 nM

COc1ccc2nccc(N(C)CC3(O)CCN(CC(O)c4ccc5c(c4)NC(=O)CS5)CC3)c2n1 (centres undefined)
XC50 (Plasmodium falciparum, 3D7): 590 nM

O=C(Nc1ccnc(N2CCCN(Cc3cccc(O)c3)CC2)c1)c1ccc(F)cc1
XC50 (Plasmodium falciparum, 3D7): 1480 nM

Cn1c(/C=C/C(=O)NC2CCC(CCN3CCc4ccc(C#N)cc4CC3)CC2)cc2ccccc21 (centres undefined)
XC50 (Plasmodium falciparum, 3D7): 733 nM

O=C(O)Cc1ccc(-c2c[nH]c3ncc(-c4cccc5ncccc45)cc23)cc1
XC50 (Plasmodium falciparum, 3D7): 847 nM

O=C(/C=C/c1ccc(Cl)c(Cl)c1)NCCCCCN1CCC(NC(=O)Nc2ccc(Oc3ccccc3)cc2)C1 (centres undefined)
XC50 (Plasmodium falciparum, 3D7): 594 nM

CC(C)CNCc1ccc(-c2cccc(CN(C(=O)CCC3CCCC3)C3CCN(Cc4ccccc4)CC3)c2)cc1
XC50 (Plasmodium falciparum, 3D7): 799 nM

CS(=O)(=O)c1ccc(-c2cncc(Nc3cccc([N+](=O)[O-])c3)c2)cc1
XC50 (Plasmodium falciparum, 3D7): 773 nM

CCN(CC)CCCN(C(=O)Nc1c(Cl)cncc1Cl)c1nc(-c2ccc(F)cc2)cs1
XC50 (Plasmodium falciparum, 3D7): 241 nM

Cc1ccc([N+](=O)[O-])cc1NC(=O)N(CC(O)c1ccccc1)C1CCCCC1 (centres undefined)
XC50 (Plasmodium falciparum, 3D7): 730 nM

CC(C)CNCc1ccc(-c2ccc(CN(CCCN3CCN(C)CC3)C(=O)CCC3CCCC3)cc2)cc1
XC50 (Plasmodium falciparum, 3D7): 1060 nM

CCCCc1ccc(C(=O)NC2CCN(C[C@H](O)c3ccnc4ccc(OC)cc34)CC2)cc1
XC50 (Plasmodium falciparum, 3D7): 728 nM

COc1ccc2c(NN=Cc3ccc(F)cc3)ccnc2c1
XC50 (Plasmodium falciparum, 3D7): 438 nM

CC(=O)Nc1ccc(OCCCN(Cc2ccccc2OC(F)(F)F)c2ccc(C(F)(F)F)c(C#N)c2)c(Cl)c1
XC50 (Plasmodium falciparum, 3D7): 813 nM

COC(=O)c1sccc1NC(=S)NC1CCC(CN2CCC(c3c[nH]c4ccccc34)CC2)CC1 (centres undefined)
XC50: 574 nM | XC50 (Plasmodium falciparum, 3D7): 915 nM

Cc1[nH]c(C)c(-c2ccc(OCc3ccc(F)cc3)nc2)c(=O)c1Br
XC50 (Plasmodium falciparum, 3D7): 203 nM

O=C(CCc1ccccc1)N[C@H](Cc1c[nH]c2ccccc12)C(=O)N1CCC(NCc2ccc3c(c2)Cc2ccccc2-3)CC1
XC50 (Plasmodium falciparum, 3D7): 910 nM

CCCN1CCC2(CC1)NC(C(=O)NCCC(C)C)Cc1c2[nH]c2cc(Cl)ccc12 (centres undefined)
XC50 (Plasmodium falciparum, 3D7): 1380 nM

CC(O)C1CCCCN1C(=O)c1cccc(-c2cccc(-c3nc4cc(C(F)(F)F)ccc4[nH]3)c2)c1 (centres undefined)
XC50 (Plasmodium falciparum, 3D7): 280 nM

CC(C)c1ccc(OCCCON2C(=N)N=C(N)NC2(C)C)cc1
XC50 (Plasmodium falciparum, 3D7): 3.2 nM

Cn1cnc2c(Nc3ccncc3)nc(-c3ccc4c(c3)OCO4)nc21
XC50 (Plasmodium falciparum, 3D7): 1110 nM

COc1cc(Nc2ccnc3cc(-c4ccncc4)ccc23)cc(OC)c1OC
XC50 (Plasmodium falciparum, 3D7): 1080 nM

O=c1ccc(CNc2nc(NCCc3ccccc3)nc3ccc(Cl)cc23)c[nH]1
XC50 (Plasmodium falciparum, 3D7): 783 nM

CC1(C)NC(N)=NC(=N)N1OCCCCCCOc1ccc(Cl)c2ccccc12
XC50 (Plasmodium falciparum, 3D7): 3.2 nM

FC(F)(F)c1ccc2[nH]ccc(=NN=Cc3cccc(Cl)c3)c2c1
XC50 (Plasmodium falciparum, 3D7): 825 nM

N=C(N)NC(=O)Nc1cc(Br)c(Br)c(Br)c1
XC50 (Plasmodium falciparum, 3D7): 809 nM

Oc1ccc(CN2CCN(CCOC(c3ccc(F)cc3)c3ccc(F)cc3)CC2)cc1Cl
XC50 (Plasmodium falciparum, 3D7): 935 nM

CC1(C)NC(N)=NC(=N)N1OCCCc1cc(Cl)c(Cl)cc1Cl
XC50 (Plasmodium falciparum, 3D7): 3.2 nM

CS(=O)(=O)NCCCNCc1ccc(-c2ccc(-c3nc4cc(F)ccc4[nH]3)cc2)cc1
XC50 (Plasmodium falciparum, 3D7): 935 nM

Cc1ccc(NC(=O)c2ccc3ncccc3c2)cc1OC1CCN(CCC(C)C)C1 (centres undefined)
XC50 (Plasmodium falciparum, 3D7): 351 nM

O=C(Nc1ccc(C(F)(F)F)cc1)NC1CCN(CCCCCNC(=O)C2CC2c2ccc(Cl)c(Cl)c2)CC1 (centres undefined)
XC50 (Plasmodium falciparum, 3D7): 626 nM

Cc1ccccc1C1CCN(C2CCC(NC(=O)/C=C/c3c[nH]c4ccccc34)CC2)CC1 (centres undefined)
XC50 (Plasmodium falciparum, 3D7): 810 nM

c1cc(COc2ccc(C3=NCCN3)cc2)nc(COc2ccc(C3=NCCN3)cc2)c1
XC50 (Plasmodium falciparum, 3D7): 147 nM

CC(=O)c1c(C)[nH]c(C(=O)Nc2ccc(-c3nc4ccc(C)cc4s3)cc2)c1C
XC50 (Plasmodium falciparum, 3D7): 837 nM

CCC(C)NCc1c(O)ccc2c(CNC(C)CC)c(O)ccc12 (centres undefined)
XC50 (Plasmodium falciparum, 3D7): 592 nM

O=c1cc(NCCC2CC=CCN2Cc2ccc(Cl)c(Cl)c2)[nH]c2ccccc12 (centres undefined)
XC50 (Plasmodium falciparum, 3D7): 1730 nM

Cc1ccc(CC(C)NC[C@H](O)c2cccc(Cl)c2)cc1 (some centres undefined)
XC50: 927 nM

CCc1nc(N)nc(N)c1-c1ccc(C(C)C)cc1
XC50 (Plasmodium falciparum, 3D7): 834 nM

CCOC(=O)c1ccc(NC(=O)Nc2cccc(-c3cccc(-c4nc5cccc(C)c5[nH]4)c3)c2)cc1
XC50 (Plasmodium falciparum, 3D7): 106 nM

Cc1cc(N[C@@H](Cc2ccccc2)C(=O)Nc2ccccc2)nc(NCC2CCCCC2)n1
XC50 (Plasmodium falciparum, 3D7): 761 nM

O=C1Nc2cccc3c2C1(CCCN1CCC(c2c[nH]c4cc(C(F)(F)F)ccc24)CC1)CCC3 (centres undefined)
XC50 (Plasmodium falciparum, 3D7): 961 nM

Cc1ccc(Nc2ccnc(Nc3ccc(C)c(F)c3)n2)cc1O
XC50 (Plasmodium falciparum, 3D7): 761 nM
